From ChEMBL document CHEMBL1125938, “A novel targeted delivery system utilizing a cephalosporin-oncolytic prodrug activated by an antibody -lactamase conjugate for the treatment of cancer” (Bioorg Med Chem Lett, 1991)
Values after ≈ are worked out from the molar mass of the structure shown.

What was measured:
LS174T [1] = assay: Compound was evaluated for in vitro cytotoxicity after 48 hour, against CEA-bearing LS174T human colon carcinoma cells, in absence of beta-L-CEM 231 conjugate; format: functional, cell-based
LS174T [2] = assay: Compound was evaluated for in vitro cytotoxicity after 6 hour, against CEA-bearing LS174T human colon carcinoma cells, in absence of beta-L-CEM 231 conjugate; format: functional, cell-based

Compound | IC50 (LS174T [1]) [ng/mL] | IC50 (LS174T [2]; Homo sapiens, LS174T, 6 h, read-out: IC50) [µg/mL] | IC50 (LS174T [2]; ls174t) [µg/mL]
CC[C@]1(O)C[C@@H]2CN(CCc3c([nH]c4ccccc34)[C@@](C(=O)OC)(c3cc4c(cc3OC)N(C)C3[C@]45CCN4CC=C[C@@](CC)([C@@H](O)[C@]3(O)C(=O)NCCS)[C@H]45)C2)C1 (stereo not given in full) | < 1 | 0.26 (≈ 0.319 µM) | –
CC[C@]1(O)C[C@@H]2CN(CCc3c([nH]c4ccccc34)[C@@](C(=O)OC)(c3cc4c(cc3OC)N(C)C3[C@]45CCN4CC=C[C@@](CC)([C@@H](O)[C@]3(O)C(=O)NCCSCC3=C(C(=O)O)N6C(=O)[C@@H](NC(=O)Cc7cccs7)[C@H]6SC3)[C@H]45)C2)C1 (single isomer, unassigned; (+)) | – | – | 0.26 (≈ 0.226 µM)
CC[C@]1(O)C[C@@H]2CN(CCc3c([nH]c4ccccc34)[C@@](C(=O)OC)(c3cc4c(cc3OC)N(C)C3[C@]45CCN4CC=C[C@@](CC)([C@@H](O)[C@]3(O)C(=O)NCCSCC3=C(C(=O)O)N6C(=O)[C@@H](NC(=O)Cc7cccs7)[C@H]6SC3)[C@H]45)C2)C1 (single isomer, unassigned; (-)) | < 1 | – | 2.15 (≈ 1.87 µM)
